The record followed here is patent US6492365B1, “Microsomal triglyceride transfer protein” (Bristol-Myers Squibb Company, priority 1992, dated 2002).

SMILES strings stand for the structures. Counter-ions that a name gives are not always drawn.

This test deals with T1, bovine MTP (Bos taurus, UniProt P55156).
T1 construct: with about 50-200 ng purified MTP in the well of a 96-well plate; from tissue; host or cells: bovine liver
T1 sequence (P55156 12-887): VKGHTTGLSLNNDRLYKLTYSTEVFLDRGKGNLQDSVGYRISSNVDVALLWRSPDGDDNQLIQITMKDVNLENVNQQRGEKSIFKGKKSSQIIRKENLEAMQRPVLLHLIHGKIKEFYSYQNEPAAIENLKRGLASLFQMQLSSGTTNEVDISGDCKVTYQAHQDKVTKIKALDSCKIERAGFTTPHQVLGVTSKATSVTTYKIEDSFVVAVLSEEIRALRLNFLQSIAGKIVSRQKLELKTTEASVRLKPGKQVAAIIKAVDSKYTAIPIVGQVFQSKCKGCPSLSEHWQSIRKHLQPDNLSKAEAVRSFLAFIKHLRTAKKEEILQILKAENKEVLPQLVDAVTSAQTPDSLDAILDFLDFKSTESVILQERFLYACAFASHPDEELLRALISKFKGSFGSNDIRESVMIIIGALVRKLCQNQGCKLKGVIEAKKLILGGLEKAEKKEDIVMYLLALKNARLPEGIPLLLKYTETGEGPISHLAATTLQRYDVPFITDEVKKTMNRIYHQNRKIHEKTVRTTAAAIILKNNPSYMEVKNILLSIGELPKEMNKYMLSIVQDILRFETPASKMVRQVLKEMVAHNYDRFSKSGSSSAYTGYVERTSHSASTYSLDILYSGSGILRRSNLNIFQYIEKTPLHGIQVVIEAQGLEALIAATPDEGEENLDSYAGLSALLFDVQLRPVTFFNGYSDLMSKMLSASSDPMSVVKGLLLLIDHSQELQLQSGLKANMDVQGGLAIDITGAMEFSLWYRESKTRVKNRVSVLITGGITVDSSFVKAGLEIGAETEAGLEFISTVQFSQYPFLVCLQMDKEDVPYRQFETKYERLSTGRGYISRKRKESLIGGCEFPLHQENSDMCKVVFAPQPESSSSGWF
T1 sequence (P05307 21-510 partner): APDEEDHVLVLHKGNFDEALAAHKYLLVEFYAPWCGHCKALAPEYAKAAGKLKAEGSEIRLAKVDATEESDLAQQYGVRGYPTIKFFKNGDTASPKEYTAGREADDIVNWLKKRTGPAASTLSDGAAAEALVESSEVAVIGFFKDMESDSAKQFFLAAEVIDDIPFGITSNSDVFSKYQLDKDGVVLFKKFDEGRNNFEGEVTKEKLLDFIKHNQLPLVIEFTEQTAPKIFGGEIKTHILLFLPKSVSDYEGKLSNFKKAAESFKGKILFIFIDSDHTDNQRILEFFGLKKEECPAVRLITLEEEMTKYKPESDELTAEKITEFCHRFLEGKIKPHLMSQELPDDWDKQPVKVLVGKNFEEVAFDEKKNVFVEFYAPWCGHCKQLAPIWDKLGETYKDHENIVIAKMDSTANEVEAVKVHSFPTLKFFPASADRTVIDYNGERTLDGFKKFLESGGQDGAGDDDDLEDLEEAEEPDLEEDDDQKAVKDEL
In words: MTP-catalyzed transport of radiolabeled TG from donor SUV to acceptor SUV. In kind it is biochemical. The following applies: for IC50: 30 minutes at 37° C., read-out: IC50 for inhibition of MTP-catalyzed TG transport from donor SUV to acceptor SUV. The protocol:
Compound A was dissolved in DMSO and then diluted into 15/40 buffer. Aliquots were added to a lipid transfer assay to bring the compound to the indicated final concentrations. DMSO concentration in the assay never exceeded 2 μL/600 μL, a concentration that was independently determined to have minimal effect on the assay. MTP-catalyzed lipid transport was measured for 30 minutes at 37° C. TG transfer was calculated and compared to a control assay without inhibitor.
Compound B was dissolved in DMSO and then diluted into 15/40 buffer. Aliquots were added to a lipid transfer assay to bring the compound to the indicated final concentrations. DMSO concentration in the assay never exceeded 2 μL/600 μL, a concentration that was independently determined to have minimal effect on the assay. MTP-catalyzed lipid transport was measured for 30 minutes at 37° C. TG transfer was calculated and compared to a control assay without inhibitor.
TG transfer activity was measured as the protein-stimulated rate of TG transfer from donor SUV to acceptor SUV. To prepare donor and acceptor vesicles, the appropriate lipids in chloroform were mixed in a 16×125 mm borosilicate glass screw cap tube (Fisher Scientific Co., Pittsburg, Pa., Cat. no. 14-933-1A) and then dried under a stream of nitrogen. Two mL 15/40 buffer (15 mM Tris, pH 7.4, 40 mM sodium chloride, 1 mM EDTA, and 0.02% NaN3) were added to the dried lipids (or 100 μL per assay, which ever is the least volume), a stream of nitrogen was blown over the buffer, then the cap was quickly screwed on to trap a nitrogen atmosphere over the lipid suspension. […]
The ^14C-TG and ^3H-PC remaining in the supernatant were quantitated by scintillation counting. TG transfer was calculated by comparing the ratio of ^14C-TG (transferred from the donor membranes to the acceptor membranes) to ^3H-PC (a marker of acceptor vesicle recovery) present in the supernatant following a transfer reaction to the ratio of total donor ^14C-TG to acceptor [^3H]PC in the assay before the transfer reaction. The percentage of ^14C-TG transfer was calculated as follows: [formula] […]

The term IC50 denotes the point on the concentration scale where inhibition reaches its midpoint.

Consider `O=C1c2ccccc2CN1C1CCN(CCC(c2ccccc2)c2ccccc2)CC1` [compound A, 2-[1-(3,3-diphenylpropyl)-4-piperdinyl]-2,3-dihydro-3-oxo-1H-isoindole hydrochloride], for which the IC50 was ~1000 nM. Under “at concentrations that inhibited approximately 40% of PC transfer”, the “decrease of TG transfer” value is given as “more than 80%”.

On to `COc1ccccc1N1CCN(CC2CC(=O)c3ccc(F)cc3C2)CC1` (stereo not drawn) [compound B, 1-[3-(6-fluoro-1-tetralanyl)methyl]-4-O-methoxyphenyl piperazine], for which the IC50 lay within 4000 to 6000 nM.
